Assay results reported in patent publication US20240016734A1 (Aquestive Therapeutics, Inc., priority 2022, published 2024).
Marks after values point to notes of the source that are not given here. Blank lines part the entries; values can stand above or below the molecule they belong to.

What was measured:
[1] = modified Ussing chambers; cited from earlier work
[2] = Ex vivo permeation of epinephrine, Franz diffusion cell
Protocol: A franz diffusion cell is obtained and prepared.
If testing films, one can perform the following next steps: (1) weigh films, punch to match diffusion area (or smaller), reweigh, record pre- and post-punching weight; (2) wet a donor area with approximately 100 μL of phosphate buffer; (3) place film on a donor surface, top with 400 μL of phosphate buffer, and start timers.
The tissue is dermatomed to precise thickness. • 4. […] The media is selected to ensure sink conditions. • 5.

[3] = concentration ranges explored
in vivo = assay: in vivo
Protocol: The study compared various dose routes: sublingual (SL), per oral tablet (PO), subcutaneous (SC) and intravenous (IV). […] An Oral Irritation assessment was performed (SL film group): Predose (0) and 24 hr postdose by Draize scoring.

[4] = assay type: in vitro ADME, porcine; conditions: pig, 360 min
From the text: FIG. 41B depicts a comparison of individual adrenergic receptor interacters in terms of amount permeated as a function of time.
FIG. 41C depicts ex vivo permeation as a function of time of different adrenergic receptor interacters in DESF compositions. The ex-vivo permeation in this example involved the exposure of porcine buccal tissue to formulations varying with regard to permeation enhancer(s) used and API concentration. […] Amount permeated increases with eugenol content, where eugenol contents in both test formulations were lower than that used in the control.
Ex-vivo permeation involved the exposure of porcine buccal tissue to formulations varying with regard to permeation enhancer(s) used and API concentration. […] Amount permeated increased with eugenol content, where eugenol contents in both test formulations were lower than that used in the control.

[5] = AQ109201 safety, adverse events; assay type: in vivo, human
[6] = AQST-109 12 mg residence time / food / swallowed film PK study; assay type: in vivo, human; conditions: for Cmax / AUC(0-t): AQST-109 12 mg (N = 48 doses), Epinephrine IM Injection 0.3 mg (N = 48 doses)
Protocol: In this example, three different residence times were tested. The 4 minute residence time is shown in circle data points. The 2 minute residence time is shown in downward pointing triangle data points. The 0 minute residence time is shown in upward pointing triangle data points.
The purpose of this investigation was to continue to study the administration of the film under a variety of conditions and further characterize its pharmacokinetics, pharmacodynamics, and safety. The final two arms of the study were designed to assess the impact of (1) administering the film sublingually two minutes after consuming food—in this case, a peanut butter sandwich, and (2) swallowing the film whole immediately with 240 mL of water. The control arm used for reference was the optimized sublingual film administration with a four-minute residence time.

[7] = Pilot PK study of auto-injectors vs 0.3 mg manual IM injection; assay type: in vivo; conditions: human, plasma, intramuscular, 27 healthy subjects, crossover
[8] = AQST-109 single and repeat dose PK vs EpiPen and 0.3 mg IM (AQ109201); assay type: in vivo, human; conditions: for AUC(0-t) / Cmax / Tmax: human, plasma, intramuscular, 0.3 mg
Protocol: Referring to FIG. 35, the study was a controlled study in healthy volunteers. […] However, the need and use of a second dose can be quite rare. […] Within this context, a post hoc analysis was performed.

[9] = in PBS (pH 7.4) at 37°±1° C., n=6; cited from earlier work
[10] = single dose: 12 mg, 0.3 mg, EpiPen

Compound: Cn1c(=O)c2c(ncn2C)n(C)c1=O [caffeine]
permeability through buccal epithelium compared with full thickness buccal tissue [1]: 1.8 fold

Compound: C=CCc1ccc(O)c(OC)c1 [3% Eugenol]
Permeability Coefficient [2]: 7.43 ×10⁻⁶ cm/s

Compound: C=CCc1ccc(O)c(OC)c1 [0.3% Eugenol]
Permeability Coefficient [2]: 4.14 ×10⁻⁶ cm/s

Compound: CNC[C@H](O)c1ccc(O)c(O)c1 [Epinephrine Bitartrate]
inherent pH in solution [3]: 4.5-5
permeation as a function of solution pH [2]: slightly favorable
Theoretical enhancement ([2]; 8 mg/mL): 2
Theoretical enhancement ([2]; 16 mg/mL): 4
Theoretical enhancement ([2]; 100 mg/mL): 25
average amount permeated ([2]; 30 min, 16 mg/mL): 0
average flux ([2]; 30 min, 16 mg/mL): 0 μg/cm^2 * min
average amount permeated ([2]; 45 min, 16 mg/mL): 2.5
average flux ([2]; 45 min, 16 mg/mL): 0.2604 μg/cm^2 * min
average amount permeated ([2]; 60 min, 16 mg/mL): 5.5
average flux ([2]; 60 min, 16 mg/mL): 0.3125 μg/cm^2 * min
average amount permeated ([2]; 120 min, 16 mg/mL): 31.33
average flux ([2]; 120 min, 16 mg/mL): 0.6727 μg/cm^2 * min
average amount permeated ([2]; 180 min, 8 mg/0.500 mL): 72.67
average flux ([2]; 180 min, 8 mg/mL): 1.076 μg/cm^2 * min
average amount permeated ([2]; 240 min, 16 mg/mL): 112.2
average flux ([2]; 240 min, 16 mg/mL): 1.029 μg/cm^2 * min
average amount permeated ([2]; 300 min, 16 mg/mL): 160.2
average flux ([2]; 300 min, 16 mg/mL): 1.25 μg/cm^2 * min
Average Steady State Flux ([2]; 360 min, 4 mg/mL): 0.167 ug/cm^2*min
Average Steady State Flux ([2]; 360 min, 8 mg/mL): 0.466 ug/cm^2*min
average amount permeated ([2]; 360 min, 16 mg/mL): 213.3
average flux ([2]; 360 min, 16 mg/mL): 1.385 μg/cm^2 * min
steady state flux average ([2]; 360 min, 16 mg/mL): 1.317
Average Steady State Flux ([2]; 360 min, 100 mg/mL): 2.942 ug/cm^2*min

Compound: C=CCc1ccc(O)c(OC)c1 [100% Eugenol]
Permeability Coefficient [2]: 38.4 ×10⁻⁶ cm/s

Compound: CNC[C@H](O)c1ccc(O)c(O)c1 [Epinephrine Base]
Average Steady State Flux ([2]; conc 4.4 mg/mL, solubilized in situ): 0.512 ug/cm^2*min

% Boiavailability (DIPI AUC0-t) (in vivo): 128.5%
% Boiavailability (EPI AUC0-t) (in vivo): 131.0%
time until cleared from the system (in vivo; iv): ≤ 2 h
AUC(0-t) (in vivo; iv, 1 mg): 0.887 ng·h/mL
Cmax (in vivo; iv, 1 mg): 11.7 ng/mL
EPI Cmax (mean) (in vivo; iv, 1 mg): 7.62 ng/mL
DIPI AUC0-t (in vivo; po, 6 mg): 0
EPI Cmax (mean) (in vivo; po, 6 mg): 0.28 ng/mL
EPI Tmax (in vivo; po, 6 mg): 120 min
Tmax (in vivo; po, 6 mg): 0 min
AUC(0-t) (in vivo; sc, 22 mg): 25.1 ng·h/mL
Cmax (in vivo; sc, 22 mg): 15 ng/mL
EPI Cmax (mean) (in vivo; sc, 22 mg): 12.5 ng/mL
EPI Tmax (in vivo; sc, 22 mg): 180 min
Tmax (in vivo; sc, 22 mg): 5 min
Compound: CNC[C@H](O)c1ccc(OC(=O)C(C)(C)C)c(OC(=O)C(C)(C)C)c1 (racemic) [Dipi Solution, dipivefrin]

amount permeated [4]: 50 to 100 µg
Compound: OCc1ccccc1 [benzyl alcohol]

Compound: C=CCc1ccc(O)c(OC)c1 [eugenol]
amount permeated [4]: 50 to 275 µg

amount permeated [4]: 0 to 50 µg
Compound: Cc1ccc(C(C)(C)O)cc1 [cherry propanol, 2-(4-methylphenyl)propan-2-ol]

Compound: CNC[C@H](O)c1ccc(O)c(O)c1 [Epinephrine IM Injection, epinephrine]
Cardiac disorders ([5]; repeat dose: 24 mg (N = 23), 0.6 mg (N = 23)): 1 (4.3) n (%)
Palpitations ([5]; repeat dose: 24 mg, 0.6 mg): 1 (4.3) n (%)
Ventricular extrasystoles ([5]; repeat dose: 24 mg, 0.6 mg): 1 (4.3) n (%)
Cardiac disorders ([5]; single dose: 12 mg (N = 23), 0.3 mg (N = 23), EpiPen (N = 22)): 1 (4.3) n (%)
Palpitations [5, 10]: 1 (4.3) n (%)
Ventricular extrasystoles [5, 10]: 0 n (%)
median time to reach 100 pg/mL ([6]; AQST-109 at 4-minute residence, 0.3 mg IM injection): 10 min
Cmax ([6]; human, plasma, im, 0.3 mg, read-out: Arithmetic Mean Cmax): 0.397 ng/mL
Cmax ([6]; human, plasma, im, 0.3 mg, read-out: Geometric Cmax): 0.351 ng/mL
AUC(0-t) ([6]; human, plasma, im, 0.3 mg, AUC 0-20 minutes): 0.023 ng·h/mL
AUC(0-t) ([6]; human, plasma, im, 0.3 mg, AUC 0-30 minutes): 0.0475 ng·h/mL
Tmax ([6]; human, plasma, im, 0.3 mg, read-out: median time to maximum concentration (Tmax) (converted)): 50 min
Cmax ([7]; read-out: geometric mean Cmax): 0.344 ng/mL
Tmax ([7]; read-out: median Tmax (converted)): 50 min
AUC(0-t) ([8]; AUC 0-30 min, Repeat Dose (10 min)): 0.067 ng·h/mL
Cmax ([8]; Repeat Dose (10 min), geometric mean, read-out: Cmax): 0.755 ng/mL
AUC(0-t) ([8]; Repeat Dose (10 min), read-out: AUC0-45 min): 0.181 ng·h/mL
AUC(0-t) ([8]; Repeat Dose (10 min), read-out: AUC 0-t): 1.3 ng·h/mL
Tmax ([8]; Repeat Dose (10 min), read-out: Tmax (median) (converted)): 50 min
Tmax ([8]; Repeat Dose (10 min), read-out: Tmax Range): 30 to 70 min
Cmax ([8]; after one dose, read-out: maximum concentration, CMax): 0.489 ng/mL
Cmax ([8]; after two doses, second dose ten minutes after the first, read-out: maximum concentration, CMax): 0.911 ng/mL
Tmax ([8]; single dose administration, read-out: Tmax (median) (converted)): 45 min
time after second dose administration until impact on PK profile ([8]; repeat dosing): over 20 min

Compound: CC(C)NCC(O)COc1cccc2ccccc12 (stereo not shown) [PP]
C0 of saturated solution [9]: 588.005 ± 5.852 ng/mL
